16 molecules from publication PMC6522510 (Nature Communications, 2019) can be followed below.

Read-outs that look alike come from different tables or passages of the source. Square brackets hold non-standard residues; d marks the D form. Peptide text beside a SMILES is read from it. Nle = CCCC[C@H](N)C(=O)O

Test systems include CHRF288-11; M07e; U937; CMK; MV4-11; MOLM-13; CMS; ML-2.
Holding throughout (parameters): species or system AML cell lines (8); Primary HTS, single concentration about 10 uM, Cell Titer Glo viability; log10 luminescence, per cent inhibition relative to cycloheximide control
Common to all, as to details: 72 h, relative to cycloheximide control, log10 luminescence, inhibitor
A general note: ATP-based viability assays read luminescence as a measure of living cells.

Turning to `CN(c1ccc(NC(=O)NCCN2CCOCC2)cc1)c1ccnc(Nc2ccc(CS(C)(=O)=O)cc2)n1` [SJ000573175-1, U17983/92/2], the CHRF288-11 %inh with CHRF288-11 was -0.5072%. In the assay with M07e, the M07e %inh stood at 2.849%. Moreover, in the assay on U937, the U937 %inh worked out at 4.061%. Moreover, the CMK %inh in the assay on CMK is -0.4287%. The MV4-11 %inh with MV4-11 was 85.52%. Besides, the MOLM-13 %inh with MOLM-13 came out at 82.21%. Besides, in the assay on CMS, the CMS %inh is recorded as 0.2292%. Also, the ML-2 %inh in the assay with ML-2 is recorded as 2.492%.

Consider `CNC(=O)c1cncc(/C=C/c2c(C)cccc2C)c1` [SJ000573249-1, U12068/55/2], for which the CHRF288-11 %inh in the assay with CHRF288-11 stood at 2.946%. For the same molecule, the M07e %inh in the assay with M07e amounted to 6.499%. Further, in the assay on U937, the U937 %inh was -0.6106%. In the assay on CMK, the CMK %inh is on record as 2.958%. The MV4-11 %inh in the assay with MV4-11 is recorded as 1.251%. For the same molecule, the MOLM-13 %inh with MOLM-13 amounted to 0.7031%. Further, in the assay with CMS, the CMS %inh amounted to 2.842%. In addition, the ML-2 %inh in the assay on ML-2 is on record as 1.303%.

Regarding `CC=CC1=C(C(=O)O)N2C(=O)[C@@H](NC(=O)[C@H](N)c3ccc(O)cc3)[C@H]2SC1` [SJ000565172-3, CEFPROZIL], the CHRF288-11 %inh with CHRF288-11 (CHRF288-11 %inh, 10 µM) is -2.278%. Besides, the M07e %inh in the assay with M07e (M07e %inh, 10 µM) is reported as -2.148%. Also, in the assay on U937 (U937 %inh, 10 µM), the U937 %inh was -1.915%. Besides, in the assay on CMK (CMK %inh, 10 µM), the CMK %inh is -7.257%. The MV4-11 %inh in the assay on MV4-11 (MV4-11 %inh, 10 µM) is -2.606%. The MOLM-13 %inh with MOLM-13 (MOLM-13 %inh, 10 µM) is -1.663%. The CMS %inh in the assay with CMS (CMS %inh, 10 µM) was found to be 0.3567%. Moreover, in the assay on ML-2 (ML-2 %inh, 10 µM), the ML-2 %inh is recorded as -1.603%.

For `OC[C@H]1O[C@@H](O[C@@H]2[C@@H](CO)OC(O)(CO)[C@H]2O)[C@H](O)[C@@H](O)[C@H]1O` (mixture of isomers) [SJ000285579-3, LACTULOSE], in the assay on CHRF288-11 (CHRF288-11 %inh, 10 µM), the CHRF288-11 %inh stood at 0.1599%. Besides, the M07e %inh in the assay on M07e (M07e %inh, 10 µM) is 2.568%. Moreover, the U937 %inh with U937 (U937 %inh, 10 µM) is listed as -0.7505%. The CMK %inh in the assay with CMK (CMK %inh, 10 µM) was -4.096%. The MV4-11 %inh with MV4-11 (MV4-11 %inh, 10 µM) was found to be 0.8098%. Further, in the assay on MOLM-13 (MOLM-13 %inh, 10 µM), the MOLM-13 %inh is reported as 2.867%. In addition, in the assay with CMS (CMS %inh, 10 µM), the CMS %inh is -1.064%. In addition, the ML-2 %inh in the assay on ML-2 (ML-2 %inh, 10 µM) is on record as -0.1648%.

As for `Cn1c(=O)c(Oc2ccc(F)cc2F)cc2cnc(NCC(C)(C)O)nc21` [SJ000581138-1], the CHRF288-11 %inh in the assay on CHRF288-11 was found to be 7.837%. Further, the M07e %inh with M07e was determined as 5.81%. In the assay on U937, the U937 %inh is recorded as 1.09%. In the assay on CMK, the CMK %inh is recorded as 2.21%. Also, in the assay on MV4-11, the MV4-11 %inh was determined as 3.026%. For the same molecule, the MOLM-13 %inh in the assay on MOLM-13 is on record as 1.398%. Also, the CMS %inh in the assay with CMS stood at 0.7178%. Further, the ML-2 %inh in the assay on ML-2 was -0.3186%.

For the molecule `NC(=O)c1cc(-c2ccncc2)cc(-c2ccccc2)c1N` [SJ000573082-1, R11976/162/1], the CHRF288-11 %inh in the assay with CHRF288-11 is on record as 4.55%. In addition, the M07e %inh in the assay on M07e is -1.265%. For the same molecule, the U937 %inh in the assay with U937 stood at 14.29%. Besides, in the assay with CMK, the CMK %inh amounted to 2.399%. Further, in the assay with MV4-11, the MV4-11 %inh is listed as 10.06%. The MOLM-13 %inh with MOLM-13 turned out to be 11%. In the assay with CMS, the CMS %inh is on record as 3.949%. Moreover, in the assay on ML-2, the ML-2 %inh is recorded as -0.3373%.

For `NC(=O)c1cc(-c2ccc(Cl)cc2)cc(-c2ccc(S(N)(=O)=O)cc2)c1N` [SJ000773162-1, IKK INHIBITOR XII], in the assay with CHRF288-11, the CHRF288-11 %inh is reported as 5.412%. In addition, the M07e %inh in the assay on M07e was -0.482%. For the same molecule, the U937 %inh in the assay with U937 is 5.575%. Moreover, the CMK %inh in the assay on CMK was found to be 7.074%. The MV4-11 %inh in the assay on MV4-11 worked out at 6.438%. In addition, in the assay with MOLM-13, the MOLM-13 %inh is given as 3.294%. The CMS %inh with CMS is 0.8646%. The ML-2 %inh in the assay on ML-2 stood at 2.717%.

Take `CN(CCCCCCCCCCN(C)C(=O)Oc1cccc([N+](C)(C)C)c1)C(=O)Oc1cccc([N+](C)(C)C)c1` [SJ000287334-2, DEMECARIUM BROMIDE]: the CHRF288-11 %inh in the assay on CHRF288-11 (CHRF288-11 %inh, 10 µM) came to 5.292%. Moreover, the M07e %inh in the assay on M07e (M07e %inh, 10 µM) is listed as 6.779%. For the same molecule, the U937 %inh in the assay with U937 (U937 %inh, 10 µM) is reported as 24.11%. Also, the CMK %inh in the assay with CMK (CMK %inh, 10 µM) amounted to 0.3844%. Further, in the assay with MV4-11 (MV4-11 %inh, 10 µM), the MV4-11 %inh was 26.64%. Further, in the assay with MOLM-13 (MOLM-13 %inh, 10 µM), the MOLM-13 %inh is listed as 14.75%. In addition, in the assay with CMS (CMS %inh, 10 µM), the CMS %inh was found to be 0.249%. Further, the ML-2 %inh in the assay on ML-2 (ML-2 %inh, 10 µM) turned out to be 3.342%.

On to `CC(C)(c1ccc(OCC2CO2)cc1)c1ccc(OCC2CO2)cc1` (centres unmarked) [SJ000546498-1, BADGE], for which, in the assay on CHRF288-11, the CHRF288-11 %inh came out at 3.756%. Also, the M07e %inh in the assay on M07e was -0.5797%. Moreover, in the assay on U937, the U937 %inh is recorded as -0.2101%. Moreover, the CMK %inh with CMK is listed as 0.4379%. The MV4-11 %inh in the assay on MV4-11 was determined as 2.685%. For the same molecule, the MOLM-13 %inh in the assay on MOLM-13 was -1.249%. The CMS %inh in the assay with CMS was -0.9549%. For the same molecule, in the assay on ML-2, the ML-2 %inh is recorded as 0.3622%.

For the molecule `Cn1c(=O)c(Oc2ccc(F)cc2F)cc2cnc(NC3CCS(=O)(=O)CC3)nc21` [SJ000581062-1], the CHRF288-11 %inh in the assay with CHRF288-11 came out at 0.18%. The M07e %inh with M07e stood at 3.904%. Besides, in the assay with U937, the U937 %inh stood at 4.309%. Moreover, in the assay with CMK, the CMK %inh is -3.198%. Further, the MV4-11 %inh in the assay with MV4-11 is -0.9313%. Further, the MOLM-13 %inh in the assay with MOLM-13 is -0.445%. Moreover, the CMS %inh with CMS is recorded as -1.245%. Besides, the ML-2 %inh with ML-2 stood at 1.685%.

Take `O=C1NC(=NCc2c(Cl)cccc2Cl)S/C1=C\c1ccc2ncccc2c1` [SJ000581049-1]: in the assay on CHRF288-11, the CHRF288-11 %inh is -0.3937%. Further, the M07e %inh in the assay with M07e turned out to be 1.964%. For the same molecule, in the assay on U937, the U937 %inh amounted to 5.41%. Moreover, the CMK %inh with CMK was -7.089%. Besides, in the assay on MV4-11, the MV4-11 %inh is -1.821%. In addition, the MOLM-13 %inh in the assay with MOLM-13 is recorded as 5.37%. Further, the CMS %inh with CMS is reported as 2.314%. The ML-2 %inh with ML-2 was found to be 1.063%.

Turning to `Cc1ccc(=O)n(-c2ccccc2)c1` [SJ000288087-4, PIRFENIDONE], the CHRF288-11 %inh with CHRF288-11 is 10.42%. In addition, the M07e %inh in the assay with M07e is on record as -1.785%. For the same molecule, the U937 %inh in the assay on U937 is on record as -2.099%. The CMK %inh in the assay on CMK was -5.144%. The MV4-11 %inh in the assay with MV4-11 came to 8.387%. Moreover, the MOLM-13 %inh in the assay with MOLM-13 turned out to be 2.774%. Moreover, the CMS %inh with CMS is recorded as 4.387%. Besides, the ML-2 %inh with ML-2 was -0.2811%.

For the molecule `CC(C)=CCC[C@]1(C)[C@@H](CC=C(C)C)C[C@@]2(CC=C(C)C)C(=O)[C@]1(C(=O)C(C)C)C(=O)C(CC=C(C)C)=C2O` [SJ000561062-1, HYPERFORIN], the CHRF288-11 %inh in the assay on CHRF288-11 is 6.256%. The M07e %inh in the assay with M07e came out at 1.526%. In addition, in the assay with U937, the U937 %inh worked out at 1.156%. In addition, the CMK %inh in the assay on CMK is recorded as 3.171%. The MV4-11 %inh in the assay on MV4-11 came out at 2.302%. The MOLM-13 %inh in the assay with MOLM-13 was determined as 0.05204%. The CMS %inh in the assay with CMS is on record as -0.1771%. In addition, the ML-2 %inh in the assay with ML-2 was determined as 4.019%.

With `CCCC[C@@H](C=O)NC(=O)[C@H](CC(C)C)NC(=O)[C@H](CC(C)C)NC(C)=O` [SJ000772397-1, MG 101 | ALLN] (Ac-Leu-Leu-[Nle]-aldehyde), the CHRF288-11 %inh in the assay with CHRF288-11 is given as 140.2%. In addition, the M07e %inh in the assay on M07e was determined as 121%. Moreover, the U937 %inh in the assay on U937 is listed as 52.66%. In addition, in the assay with CMK, the CMK %inh is 126.5%. Also, the MV4-11 %inh in the assay on MV4-11 stood at 82.08%. In addition, the MOLM-13 %inh with MOLM-13 turned out to be 102.2%. For the same molecule, the CMS %inh in the assay on CMS is given as 98.27%. Besides, the ML-2 %inh with ML-2 is given as 57.14%.

In the case of `Nc1nccc(-c2c(-c3ccc(F)cc3)ncn2CCCN2CCOCC2)n1` [SJ000573180-1, TG19207-124A1], the CHRF288-11 %inh in the assay on CHRF288-11 is reported as -0.01823%. In the assay on M07e, the M07e %inh was 1.031%. In addition, the U937 %inh in the assay with U937 was 3.947%. Further, the CMK %inh with CMK is -0.5604%. For the same molecule, the MV4-11 %inh in the assay on MV4-11 amounted to 0.7283%. For the same molecule, the MOLM-13 %inh with MOLM-13 is on record as -0.9293%. Further, the CMS %inh in the assay with CMS is given as -3.18%. Also, the ML-2 %inh with ML-2 was 2.942%.

On to `COc1ccc(-c2cc(-c3c[nH]nc3-c3ccccn3)ccn2)cc1` [SJ000573277-1, FFJG/208/167/1], for which, in the assay on CHRF288-11, the CHRF288-11 %inh amounted to 12.63%. The M07e %inh in the assay with M07e worked out at 1.202%. Besides, the U937 %inh in the assay with U937 was 7.208%. Further, in the assay on CMK, the CMK %inh is reported as 4.937%. For the same molecule, the MV4-11 %inh with MV4-11 is given as 4.2%. The MOLM-13 %inh in the assay with MOLM-13 is reported as 2.31%. Further, the CMS %inh with CMS was 0.9761%. In addition, the ML-2 %inh in the assay with ML-2 was -0.1507%.
